What was measured:
[1] = Cytotoxicity against human PC3 cells assessed as cell growth at 10^-8 M after 24 hrs by SRB assay; assay type: functional; conditions: PC-3, 24 h, read-out: Activity
[2] = Cytotoxicity against human DU145 cells assessed as cell growth at 10^-8 M after 24 hrs by SRB assay; assay type: functional; conditions: DU-145, 24 h, read-out: Activity
NCI-H322M = test: Cytotoxicity against human NCI-H322M cells assessed as cell growth at 10^-7 M after 24 hrs by SRB assay; assay type: functional; conditions: read-out: Activity
[3] = Cytotoxicity against human COLO205 cells assessed as cell growth at 10^-7 M after 24 hrs by SRB assay; assay type: functional; conditions: COLO 205, 24 h, read-out: Activity
SR = test: Cytotoxicity against human SR cells assessed as cell growth at 10^-4 M after 24 hrs by SRB assay; assay type: functional; conditions: read-out: Activity
A549 [4] = test: Cytotoxicity against human A549 cells assessed as cell growth at 10^-4 M after 24 hrs by SRB assay; assay type: functional; conditions: A549, 24 h, read-out: Activity
MDA-MB-435 = test: Cytotoxicity against human MDA-MB-435 cells assessed as cell growth at 10^-7 M after 24 hrs by SRB assay; assay type: functional; conditions: MDA-MB-435, 24 h, read-out: Activity
786-0 [5] = test: Cytotoxicity against human 786-0 cells assessed as cell growth at 10^-7 M after 24 hrs by SRB assay; assay type: functional; conditions: 786-0, 24 h, read-out: Activity
[6] = Cytotoxicity against human COLO205 cells after 24 hrs by SRB assay; assay type: functional, cell-based; conditions: COLO 205, 24 h
U-251 [7] = test: Cytotoxicity against human U251 cells after 24 hrs by SRB assay; assay type: functional; conditions: U-251, 24 h
NCI-H226 [8] = test: Cytotoxicity against human NCI-H226 cells assessed as cell growth at 10^-4 M after 24 hrs by SRB assay; assay type: functional; conditions: NCI-H226, 24 h, read-out: Activity
KM12 = test: Cytotoxicity against human KM12 cells assessed as cell growth at 10^-4 M after 24 hrs by SRB assay; assay type: functional; conditions: KM12, 24 h, read-out: Activity
[9] = Cytotoxicity against human Caki1 cells assessed as cell growth at 10^-4 M after 24 hrs by SRB assay; assay type: functional; conditions: CAKI-1, 24 h, read-out: Activity
[10] = Cytotoxicity against human HCC2998 cells assessed as cell growth at 10^-6 M after 24 hrs by SRB assay; assay type: functional; conditions: HCC 2998, 24 h, read-out: Activity
U-251 [11] = test: Cytotoxicity against human U251 cells assessed as cell growth at 10^-6 M after 24 hrs by SRB assay; assay type: functional; conditions: U-251, 24 h, read-out: Activity
[12] = Cytotoxicity against human OVCAR4 cells assessed as cell growth at 10^-6 M after 24 hrs by SRB assay; assay type: functional; conditions: OVCAR-4, 24 h, read-out: Activity
[13] = Cytotoxicity against human SKOV3 cells assessed as cell growth at 10^-6 M after 24 hrs by SRB assay; assay type: functional; conditions: SK-OV-3, 24 h, read-out: Activity
[14] = Cytotoxicity against human UO31 cells assessed as cell growth at 10^-6 M after 24 hrs by SRB assay; assay type: functional; conditions: UO-31, 24 h, read-out: Activity
[15] = Cytotoxicity against human DU145 cells assessed as cell growth at 10^-6 M after 24 hrs by SRB assay; assay type: functional; conditions: DU-145, 24 h, read-out: Activity
MCF7 = test: Cytotoxicity against human MCF7 cells assessed as cell growth at 10^-6 M after 24 hrs by SRB assay; assay type: functional; conditions: MCF7, 24 h, read-out: Activity
[16] = Cytotoxicity against human OVCAR5 cells after 24 hrs by SRB assay; assay type: functional; conditions: OVCAR-5, 24 h
786-0 [17] = test: Cytotoxicity against human 786-0 cells after 24 hrs by SRB assay; assay type: functional, cell-based; conditions: 786-0, 24 h
[18] = Cytotoxicity against human RPMI8226 cells assessed as cell growth at 10^-8 M after 24 hrs by SRB assay; assay type: functional; conditions: RPMI-8226, 24 h, read-out: Activity
NCI-H226 [19] = test: Cytotoxicity against human NCI-H226 cells assessed as cell growth at 10^-8 M after 24 hrs by SRB assay; assay type: functional; conditions: NCI-H226, 24 h, read-out: Activity
[20] = Cytotoxicity against human SF295 cells assessed as cell growth at 10^-8 M after 24 hrs by SRB assay; assay type: functional; conditions: SF-295, 24 h, read-out: Activity
SK-MEL-5 = test: Cytotoxicity against human SK-MEL-5 cells assessed as cell growth at 10^-8 M after 24 hrs by SRB assay; assay type: functional; conditions: SK-MEL-5, 24 h, read-out: Activity
[21] = Cytotoxicity against human OVCAR3 cells assessed as cell growth at 10^-8 M after 24 hrs by SRB assay; assay type: functional; conditions: OVCAR-3, 24 h, read-out: Activity
K562 = test: Cytotoxicity against human K562 cells assessed as cell growth at 10^-5 M after 24 hrs by SRB assay; assay type: functional; conditions: K562, 24 h, read-out: Activity
A549 [22] = test: Cytotoxicity against human A549 cells assessed as cell growth at 10^-5 M after 24 hrs by SRB assay; assay type: functional; conditions: A549, 24 h, read-out: Activity
HT-29 = test: Cytotoxicity against human HT-29 cells assessed as cell growth at 10^-5 M after 24 hrs by SRB assay; assay type: functional; conditions: HT-29, 24 h, read-out: Activity
Malme-3M = test: Cytotoxicity against human MALME-3M cells assessed as cell growth at 10^-5 M after 24 hrs by SRB assay; assay type: functional; conditions: read-out: Activity
[23] = Cytotoxicity against human UACC257 cells assessed as cell growth at 10^-5 M after 24 hrs by SRB assay; assay type: functional; conditions: UACC-257, 24 h, read-out: Activity
[24] = Cytotoxicity against human UACC62 cells assessed as cell growth at 10^-5 M after 24 hrs by SRB assay; assay type: functional; conditions: UACC-62, 24 h, read-out: Activity
[25] = Cytotoxicity against human UO31 cells assessed as cell growth at 10^-5 M after 24 hrs by SRB assay; assay type: functional; conditions: UO-31, 24 h, read-out: Activity
MDA-MB-231 = test: Cytotoxicity against human MDA-MB-231 cells assessed as cell growth at 10^-5 M after 24 hrs by SRB assay; assay type: functional; conditions: MDA-MB-231, 24 h, read-out: Activity
[26] = Cytotoxicity against human Hs 578T cells assessed as cell growth at 10^-5 M after 24 hrs by SRB assay; assay type: functional; conditions: read-out: Activity
[27] = read-out: LC50 (the source's name)
[28] = read-out: pLC50 (the source's name) (converted)

Work on `O=C(Nc1cc(-c2cccnc2)nc(NCCCN2CCOCC2)n1)c1cc(Br)cc(C(F)(F)F)c1` yielded a growth at 0.01 µM [1] of 93%, a growth at 0.01 µM [2] of 103% and a growth at 0.1 µM (NCI-H322M) of 107%. It also gave a growth at 0.1 µM [3] of 93%, a growth at 100 µM (SR) of -1% and a growth at 100 µM (A549 [4]) of -95%. It also gave a growth at 0.1 µM (MDA-MB-435) of 92%, a growth at 0.1 µM (786-0 [5]) of 91% and a GI50 ([6]; read-out: GI50) of 1.77 µM. The CC50 [6, 27] was 6.79 µM, the TGI ([6]; read-out: TGI) was 3.47 µM and the GI50 ([6]; read-out: pGI50 (converted)) was 1.78 µM. It also gave a CC50 [6, 28] of 6.76 µM, a TGI ([6]; read-out: pTGI (converted)) of 3.47 µM and a GI50 (U-251 [7]; read-out: GI50) of 2.05 µM. The CC50 (U-251 [7]; [27]) was 9.04 µM, the TGI (U-251 [7]; read-out: TGI) was 4.3 µM and the GI50 (U-251 [7]; read-out: pGI50 (converted)) was 2.04 µM. The CC50 (U-251 [7]; [28]) was 9.12 µM, the TGI (U-251 [7]; read-out: pTGI (converted)) was 4.27 µM and the growth at 100 µM (NCI-H226 [8]) was -89%. It also gave a growth at 100 µM (KM12) of -90%, a growth at 100 µM [9] of -100% and a growth at 1 µM [10] of 92%. The growth at 1 µM (U-251 [11]) was 98%, the growth at 1 µM [12] was 84% and the growth at 1 µM [13] was 97%. For the same molecule, the growth at 1 µM [14] was 69%, the growth at 1 µM [15] was 101% and the growth at 1 µM (MCF7) was 77%. For the same molecule, the GI50 ([16]; read-out: GI50) was 6.33 µM, the CC50 [16, 27] was 69.1 µM and the TGI ([16]; read-out: TGI) was 23.5 µM. It also gave a GI50 ([16]; read-out: pGI50 (converted)) of 6.31 µM, a CC50 [16, 28] of 69.2 µM and a TGI ([16]; read-out: pTGI (converted)) of 23.4 µM. It also gave an IC50 (786-0 [17]) of 1.55 µM, a GI50 (786-0 [17]; read-out: GI50) of 1.55 µM and a CC50 (786-0 [17]; [27]) of 6.47 µM. It also gave a TGI (786-0 [17]; read-out: TGI) of 3.17 µM, a GI50 (786-0 [17]; read-out: pGI50 (converted)) of 1.55 µM and a CC50 (786-0 [17]; [28]) of 6.46 µM. The TGI (786-0 [17]; read-out: pTGI (converted)) was 3.16 µM, the growth at 0.01 µM [18] was 103% and the growth at 0.01 µM (NCI-H226 [19]) was 92%. The growth at 0.01 µM [20] was 97%, the growth at 0.01 µM (SK-MEL-5) was 95% and the growth at 0.01 µM [21] was 105%. The growth at 10 µM (K562) was 4%, the growth at 10 µM (A549 [22]) was 51% and the growth at 10 µM (HT-29) was -41%. It also gave a growth at 10 µM (Malme-3M) of -72%, a growth at 10 µM [23] of -83% and a growth at 10 µM [24] of -50%. It also gave a growth at 10 µM [25] of -61%, a growth at 10 µM (MDA-MB-231) of -59% and a growth at 10 µM [26] of -7%.

Reference: ChEMBL document CHEMBL3774345, “Synthesis of new diarylamides with pyrimidinyl pyridine scaffold and evaluation of their anti-proliferative effect on cancer cell lines” (Bioorg Med Chem Lett, 2016)
